Assays:
ovine COX-2 = molecular target: T1, ovine COX-2 (Ovis aries, UniProt P79208); test: Cyclooxygenase-2 inhibition study; assay type: biochemical
T1 construct: purchased Cayman (USA)
T1 sequence (P79208 17-603): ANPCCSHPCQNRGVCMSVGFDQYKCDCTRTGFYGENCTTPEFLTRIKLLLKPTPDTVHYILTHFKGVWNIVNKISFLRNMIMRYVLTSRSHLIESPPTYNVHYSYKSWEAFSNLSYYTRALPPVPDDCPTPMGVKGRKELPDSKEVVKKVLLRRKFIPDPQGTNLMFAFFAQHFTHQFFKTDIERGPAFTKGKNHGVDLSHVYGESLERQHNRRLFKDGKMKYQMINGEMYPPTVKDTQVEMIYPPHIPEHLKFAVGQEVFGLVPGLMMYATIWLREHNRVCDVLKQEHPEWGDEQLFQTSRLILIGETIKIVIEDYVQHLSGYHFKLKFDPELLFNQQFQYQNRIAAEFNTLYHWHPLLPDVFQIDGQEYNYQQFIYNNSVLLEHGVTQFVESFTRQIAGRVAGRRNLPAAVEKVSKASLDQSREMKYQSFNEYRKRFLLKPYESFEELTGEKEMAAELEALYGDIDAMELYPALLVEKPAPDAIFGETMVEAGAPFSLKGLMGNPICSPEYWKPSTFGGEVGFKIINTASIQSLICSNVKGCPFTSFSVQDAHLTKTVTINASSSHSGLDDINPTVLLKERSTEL
Experimental: The in vitro study of cyclooxygenase (COX) activity was determined by using arachidonic acid (AA) as the substrate and N,N,N’,N’-tetramethylphenylenediamine (TMPD) as the co-substrate. […] The absorption due to the spontaneous oxidation of TMPD was subtracted from the initial rate of oxidation observed in the presence of AA. […] A blank determination was used first to serve as a negative control. Indomethacin was used as a reference COX-2 inhibitor (positive control).
The role of COX-2 in neurodegenerative diseases has been reported, and COX-2 inhibition is considered of high importance as a therapeutic tool. The designed derivatives were tested for their COX-2 inhibition activity on the ovine COX-2 enzyme. […] Indomethacin was used as a reference compound.

[1] = molecular target: T2, soybean lipoxygenase (LOX-1) (Glycine max, UniProt P08170); settings: % inhibition at 100 µM; cited from earlier work
T2 construct: purchased Sigma Chemical, Co. (St Louis, MO, USA)
T2 sequence (P08170 1-839): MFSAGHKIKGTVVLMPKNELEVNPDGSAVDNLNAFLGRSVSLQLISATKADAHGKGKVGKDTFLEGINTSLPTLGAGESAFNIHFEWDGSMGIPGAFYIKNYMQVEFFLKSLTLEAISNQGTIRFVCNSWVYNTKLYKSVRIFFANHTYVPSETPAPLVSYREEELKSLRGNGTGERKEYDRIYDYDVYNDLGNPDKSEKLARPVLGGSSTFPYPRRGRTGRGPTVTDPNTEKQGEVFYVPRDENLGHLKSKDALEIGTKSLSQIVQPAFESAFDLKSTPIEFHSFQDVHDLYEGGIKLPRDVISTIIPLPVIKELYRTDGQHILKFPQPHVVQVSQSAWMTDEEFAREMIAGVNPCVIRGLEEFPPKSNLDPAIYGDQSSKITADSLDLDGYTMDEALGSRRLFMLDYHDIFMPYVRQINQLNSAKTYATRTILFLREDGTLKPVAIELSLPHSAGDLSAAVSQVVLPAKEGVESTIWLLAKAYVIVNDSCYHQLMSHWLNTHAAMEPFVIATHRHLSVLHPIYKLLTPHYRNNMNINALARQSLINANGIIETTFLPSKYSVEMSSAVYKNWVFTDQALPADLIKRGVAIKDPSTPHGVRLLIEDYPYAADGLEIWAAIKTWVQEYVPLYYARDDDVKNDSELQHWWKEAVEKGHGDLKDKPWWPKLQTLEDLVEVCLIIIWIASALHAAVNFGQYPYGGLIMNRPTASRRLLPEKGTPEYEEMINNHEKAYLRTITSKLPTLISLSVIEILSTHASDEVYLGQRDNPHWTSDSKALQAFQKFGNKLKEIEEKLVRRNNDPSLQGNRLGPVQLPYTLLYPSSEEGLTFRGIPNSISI

[2] = cited from earlier work

O=C(O)/C=C/C=C/c1ccccc1 [Compound 23]
inhibition at 100 µM (ovine COX-2): 9% | LOX inhibition (%) [1]: 24% | AAPH inhibition (%, at 100 µM) [2]: 30%
